The record followed here is US20240408085A1, “COMPOUND FOR DEGRADATION OF BCL-2 FAMILY PROTEINS AND MEDICAL APPLICATION THEREOF” (XIZANG HAISCO PHARMACEUTICAL CO., LTD., priority 2021, published 2024).

The experiment deals with MOLT-4 cells. As to the kind of experiment: Cell proliferation activity in MOLT-4 cells (72 h, cell viability luminescence). Format: cell-based, human. Conditions: read-out: IC50 for the inhibition of MOLT-4 cell proliferation. Here is the method:
MOLT-4 cells are acute lymphoblastic leukemia cell lines in humans. The cells were purchased from ATCC. Culture conditions: RPMI-1640+10% FBS+1% penicillin-streptomycin solution. The cells were cultured in a 37° C., 5% CO2 incubator. The cells were plated in a 96-well plate, with 5×10^3 cells/well. After plating, compounds at different concentrations were added and cultured in a 37° C., 5% CO2 incubator for 72 h. After the completion of culture, a reagent (Promega, G7573) for detecting the cell viability was added. The mixture was uniformly mixed for 2 minutes and then incubated at room temperature for 10 minutes. The luminescence signal was detected with a multimode plate reader (BMG, PHERAstar FSX). The luminescence readings were processed using GraphPad Prism 8.0 software and the IC50 values of the compounds for the inhibition of cell proliferation and the maximum inhibition rate were calculated according to formula (2) and formula (3), respectively, wherein Tadministration denotes the cell signal readings obtained after incubation with the compounds for 72 h, and Tvehicle denotes the cell signal readings obtained after incubation with the vehicle control for 72 h.
Calculation of Max inhibition %: after the processing according to formula (2), the inhibition rate of the compounds at the highest concentration was calculated.

Read-outs that look alike come from different tables or passages of the source.

In the case of `O=C1CCC(N2C(=O)c3ccc(N4CCC(CN5CCN(CC[C@H](CSc6ccccc6)Nc6ccc(S(=O)(=O)NC(=O)c7ccc(N8CCN(CC9=C(c%10ccc(Cl)cc%10)CCCCC9)CC8)cc7)cc6S(=O)(=O)C(F)(F)F)CC5)CC4)cc3C2=O)C(=O)N1` (stereo partly drawn) [Compound 45, 4-(4-((2-(4-chlorophenyl)cyclohept-1-en-1-yl)methyl)piperazin-1-yl)-N-((4-(((2R)-4-(4-((1-(2-(2,6-dioxopiperidin-3-yl)-1,3-dioxoisoindolin-5-yl)piperidin-4-yl)methyl)piperazin-1-yl)-1-(phenylthio)butan-2-yl)amino)-3-((trifluoromethyl)sulfonyl)phenyl)sulfonyl)benzamide], the IC50 (Homo sapiens) was below 0.5 µM.

With `Cc1ncsc1-c1ccc([C@H](C)NC(=O)[C@@H]2C[C@@H](O)CN2C(=O)[C@@H](NC(=O)CCCCCCC(=O)N2C[C@@H]3C[C@H]2CN3CC[C@H](CSc2ccccc2)Nc2ccc(S(=O)(=O)NC(=O)c3ccc(N4CCN(CC5=C(c6ccc(Cl)cc6)CCC6(CC6)C5)CC4)cc3)cc2S(=O)(=O)C(F)(F)F)C(C)(C)C)cc1` [Compound 28, (2S,4R)-1-((S)-2-(8-((1S,4S)-5-((R)-3-((4-(N-(4-(4-((6-(4-chlorophenyl)spiro[2.5]oct-5-en-5-yl)methyl)piperazin-1-yl)benzoyl)sulfamoyl)-2-((trifluoromethyl)sulfonyl)phenyl)amino)-4-(phenylthio)butyl)-2,5-diazabicyclo[2.2.1]heptan-2-yl)-8-oxooctanamido)-3,3-dimethylbutanoyl)-4-hydroxy-N—((S)-1-(4-(4-methylthiazol-5-yl)phenyl)ethyl)pyrrolidine-2-carboxamide], where the note is “Homo sapiens”, the IC50 was below 0.5 µM.

As to `Cc1ncsc1-c1ccc([C@H](C)NC(=O)[C@@H]2C[C@@H](O)CN2C(=O)[C@@H](NC(=O)CCCCCC(=O)N2C[C@@H]3C[C@H]2CN3CC[C@H](CSc2ccccc2)Nc2ccc(S(=O)(=O)NC(=O)c3ccc(N4CCN(CC5=C(c6ccc(Cl)cc6)CCC(C)(C)C5)CC4)cc3)cc2S(=O)(=O)C(F)(F)F)C(C)(C)C)cc1` [Compound 13, (2S,4R)-1-((S)-2-(7-((1S,4S)-5-((R)-3-((4-(N-(4-(4-((4′-chloro-4,4-dimethyl-3,4,5,6-tetrahydro-[1,1′-biphenyl]-2-yl)methyl)piperazin-1-yl)benzoyl)sulfamoyl)-2-((trifluoromethyl)sulfonyl)phenyl)amino)-4-(phenylthio)butyl)-2,5-diazabicyclo[2.2.1]heptan-2-yl)-7-oxoheptanamido)-3,3-dimethylbutanoyl)-4-hydroxy-N—((S)-1-(4-(4-methylthiazol-5-yl)phenyl)ethyl)pyrrolidine-2-carboxamide], for the setting “Homo sapiens”, the IC50 is below 0.5 µM.

Consider `Cc1ncsc1-c1ccc([C@H](C)NC(=O)[C@@H]2C[C@@H](O)CN2C(=O)[C@@H](NC(=O)CCCCCCC(=O)N2C[C@H]3CN(CC[C@H](CSc4ccccc4)Nc4ccc(S(=O)(=O)NC(=O)c5ccc(N6CCN(CC7=C(c8ccc(Cl)cc8)CCC8(CC8)C7)CC6)cc5)cc4S(=O)(=O)C(F)(F)F)C[C@H]3C2)C(C)(C)C)cc1` [Compound 22, cis-(2S,4R)-1-((S)-2-(8-(5-((R)-3-((4-(N-(4-(4-((6-(4-chlorophenyl)spiro[2.5]oct-5-en-5-yl)methyl)piperazin-1-yl)benzoyl)sulfamoyl)-2-((trifluoromethyl)sulfonyl)phenyl)amino)-4-(phenylthio)butyl)hexahydropyrrolo[3,4-c]pyrrol-2(1H)-yl)-8-oxooctanamido)-3,3-dimethylbutanoyl)-4-hydroxy-N—((S)-1-(4-(4-methylthiazol-5-yl)phenyl)ethyl)pyrrolidine-2-carboxamide], for which, where the note is “Homo sapiens”, the IC50 was below 0.5 µM.

As for `Cc1ncsc1-c1ccc([C@H](C)NC(=O)[C@@H]2C[C@@H](O)CN2C(=O)[C@@H](NC(=O)CCCCCCC(=O)N2CCN(CC[C@H](CSc3ccccc3)Nc3ccc(S(=O)(=O)NC(=O)c4ccc(N5CCN(CC6=C(c7ccc(Cl)cc7F)CCC7(CC7)C6)CC5)cc4)cc3S(=O)(=O)C(F)(F)F)CC2)C(C)(C)C)cc1` [Compound 32, (2S,4R)-1-((S)-2-(8-(4-((R)-3-((4-(N-(4-(4-((6-(4-chloro-2-fluorophenyl)spiro[2.5]oct-5-en-5-yl)methyl)piperazin-1-yl)benzoyl)sulfamoyl)-2-((trifluoromethyl)sulfonyl)phenyl)amino)-4-(phenylthio)butyl)piperazin-1-yl)-8-oxoheptanamido)-3,3-dimethylbutanoyl)-4-hydroxy-N—((S)-1-(4-(4-methylthiazol-5-yl)phenyl)ethyl)pyrrolidine-2-carboxamide], the IC50 is below 0.5 µM.

As for `Cc1ncsc1-c1ccc([C@H](C)NC(=O)[C@@H]2C[C@@H](O)CN2C(=O)[C@@H](NC(=O)CCCCCCC(=O)N2C[C@@H]3C[C@H]2CN3CC[C@H](CSc2ccccc2)Nc2ccc(S(=O)(=O)NC(=O)c3ccc(N4CCN(CC5=C(c6ccc(Cl)cc6)CCCCC5)CC4)cc3)cc2S(=O)(=O)C(F)(F)F)C(C)(C)C)cc1` [Compound 34, (2S,4R)-1-((S)-2-(8-((1S,4S)-5-((R)-3-((4-(N-(4-(4-((2-(4-chlorophenyl)cyclohept-1-en-1-yl)methyl)piperazin-1-yl)benzoyl)sulfamoyl)-2-((trifluoromethyl)sulfonyl)phenyl)amino)-4-(phenylthio)butyl)-2,5-diazabicyclo[2.2.1]heptan-2-yl)-8-oxooctanamido)-3,3-dimethylbutanoyl)-4-hydroxy-N—((S)-1-(4-(4-methylthiazol-5-yl)phenyl)ethyl)pyrrolidine-2-carboxamide], for the setting “Homo sapiens”, the IC50 was below 0.5 µM.

With `Cc1ncsc1-c1ccc([C@H](C)NC(=O)[C@@H]2C[C@@H](O)CN2C(=O)[C@@H](NC(=O)CCCCCC(=O)N2CCN(CC[C@H](CSc3ccccc3)Nc3ccc(S(=O)(=O)NC(=O)c4ccc(N5CCN(CC6=C(c7ccc(Cl)cc7)CCCCC6)CC5)cc4)cc3S(=O)(=O)C(F)(F)F)CC2)C(C)(C)C)cc1` [Trifluoroacetate of compound 6, (2S,4R)-1-((S)-2-(7-(4-((R)-3-((4-(N-(4-(4-((2-(4-chlorophenyl)cyclohept-1-en-1-yl)methyl)piperazin-1-yl)benzoyl)sulfamoyl)-2-((trifluoromethyl)sulfonyl)phenyl)amino)-4-(phenylthio)butyl)piperazin-1-yl)-7-oxoheptanamido)-3,3-dimethylbutanoyl)-4-hydroxy-N—((S)-1-(4-(4-methylthiazol-5-yl)phenyl)ethyl)pyrrolidine-2-carboxamide], where the note is “Homo sapiens”, the IC50 was below 0.5 µM.

In the case of `Cc1ncsc1-c1ccc([C@H](C)NC(=O)[C@@H]2C[C@@H](O)CN2C(=O)[C@@H](NC(=O)CCCCCCC(=O)N2C[C@@H]3C[C@H]2CN3CC[C@H](CSc2ccccc2)Nc2ccc(S(=O)(=O)NC(=O)c3ccc(N4CCN(CC5=C(c6ccc(Cl)cc6F)CCCCC5)CC4)cc3)cc2S(=O)(=O)C(F)(F)F)C(C)(C)C)cc1` [Compound 38, (2S,4R)-1-((S)-2-(8-((1S,4S)-5-((R)-3-((4-(N-(4-(4-((2-(4-chloro-2-fluorophenyl)cyclohept-1-en-1-yl)methyl)piperazin-1-yl)benzoyl)sulfamoyl)-2-((trifluoromethyl)sulfonyl)phenyl)amino)-4-(phenylthio)butyl)-2,5-diazabicyclo[2.2.1]heptan-2-yl)-8-oxooctanamido)-3,3-dimethylbutanoyl)-4-hydroxy-N—((S)-1-(4-(4-methylthiazol-5-yl)phenyl)ethyl)pyrrolidine-2-carboxamide], the IC50 (Homo sapiens) is below 0.5 µM.

Consider `Cc1ncsc1-c1ccc([C@H](C)NC(=O)[C@@H]2C[C@@H](O)CN2C(=O)[C@@H](NC(=O)CCCCCC(=O)N2CCN(CC[C@H](CSc3ccccc3)Nc3ccc(S(=O)(=O)NC(=O)c4ccc(N5CCN(CC6=C(c7ccc(Cl)cc7F)CCC(C)(C)C6)CC5)cc4)cc3S(=O)(=O)C(F)(F)F)CC2)C(C)(C)C)cc1` [Compound 12, (2S,4R)-1-((S)-2-(7-(4-((R)-3-((4-(N-(4-(4-((4′-chloro-2′-fluoro-4,4-dimethyl-3,4,5,6-tetrahydro-[1,1′-biphenyl]-2-yl)methyl)piperazin-1-yl)benzoyl)sulfamoyl)-2-((trifluoromethyl)sulfonyl)phenyl)amino)-4-(phenylthio)butyl)piperazin-1-yl)-7-oxoheptanamido)-3,3-dimethylbutanoyl)-4-hydroxy-N—((S)-1-(4-(4-methylthiazol-5-yl)phenyl)ethyl)pyrrolidine-2-carboxamide], for which the IC50 (Homo sapiens) was below 0.5 µM.

Regarding `Cc1ncsc1-c1ccc([C@H](C)NC(=O)[C@@H]2C[C@@H](O)CN2C(=O)[C@@H](NC(=O)CCCCCC(=O)N2C[C@@H]3C[C@H]2CN3CC[C@H](CSc2ccccc2)Nc2ccc(S(=O)(=O)NC(=O)c3ccc(N4CCN(CC5=C(c6ccc(Cl)cc6F)CCC(C)(C)C5)CC4)cc3)cc2S(=O)(=O)C(F)(F)F)C(C)(C)C)cc1` [Compound 20, (2S,4R)-1-((S)-2-(7-((1S,4S)-5-((R)-3-((4-(N-(4-(4-((4′-chloro-2′-fluoro-4,4-dimethyl-3,4,5,6-tetrahydro-[1,1′-biphenyl]-2-yl)methyl)piperazin-1-yl)benzoyl)sulfamoyl)-2-((trifluoromethyl)sulfonyl)phenyl)amino)-4-(phenylthio)butyl)-2,5-diazabicyclo[2.2.1]heptan-2-yl)-7-oxoheptanamido)-3,3-dimethylbutanoyl)-4-hydroxy-N—((S)-1-(4-(4-methylthiazol-5-yl)phenyl)ethyl)pyrrolidine-2-carboxamide], the IC50 (Homo sapiens) was below 0.5 µM.
